Measurements from patent US20240384350A1, “METHODS OF TREATING CANCER WITH KINASE INHIBITORS” (BOARD OF REGENTS, THE UNIVERSITY OF TEXAS SYSTEM, priority 2021, published 2024).

Legend:
Test in all cases: Ba/F3 drug screening, Cell Titer Glo, IC50 Mut/WT
Assay type in all cases: cell-based
[1] = target: T1, EGFR V774M (Homo sapiens, UniProt P00533, V774M)
T1 construct: host or cells: Ba/F3

[2] = target: T2, EGFR S768dupSVD (Homo sapiens, UniProt P00533, DUP768-770); conditions: Ex20, 72 hours
T2 construct: expressed in transfected cells; host or cells: Ba/F3 cells, retroviral pBabe-Puro vector
Experimental: Data represent the ratio of the IC50 value for a given TKI for cells with an ex20ins EGFR mutation to the IC50 value for cells with wildtype EGFR.
(§1) Ba/F3 cell generation, drug screening, and IC50 approximations. Ba/F3 cells were obtained as a gift from Dr. Gordon Mills (MD Anderson Cancer Center), and maintained in RPMI (Sigma) containing 10% FBS, 1% penicillin/streptomycin, and 10 ng/ml recombinant mIL-3 (R&D Biosystems). To establish stable Ba/F3 cell lines, Ba/F3 cells were transduced with retroviruses containing mutant EGFR plasmids for 12-24 hours.
(§2) After 48-72 hours of transduction, 2 μg/ml puromycin (Invitrogen) was added to Ba/F3 cell lines in complete RPMI. To select for EGFR positive cell lines, cells were stained with PE-EGFR (Biolegend) and sorted by FACS. After sorting, EGFR positive cells were maintained in RPMI containing 10% FBS, 1% penicillin/streptomycin, and 1 ng/ml EGF to support cell viability. Drug screening was performed as previously described^41,42. Shortly, cells were plated in 384-well plates (Greiner Bio-One) at 2000-3000 cells per well in technical triplicate. Seven different concentrations of TKIs or DMSO vehicle were added to reach a final volume of 40 μL per well. After 72 hours, 11 μL of Cell Titer Glo (Promega) was added to each well. Plates were incubated for a minimum of 10 minutes, and bioluminescence was determined using a FLUOstar OPTIMA plate reader (BMG LABTECH). Raw bioluminescence values were normalized to DMSO control treated cells, and values were plotted in GraphPad Prism. […] Drug screens were performed in technical triplicate on each plate and either duplicate or triplicate biological replicates. […] Statistical differences between groups were determined by ANOVA as described in the figure legends.

[3] = target: T3, EGFR L718Q T790M (Homo sapiens, UniProt P00533, L718Q/T790M); conditions: T790M-like-3R, 72 hours
T3 construct: expressed in transfected cells; host or cells: Ba/F3

[4] = target: T4, EGFR D761N (Homo sapiens, UniProt P00533, D761N); conditions: Classical-Like, 72 hours
T4 construct: expressed in transfected cells; host or cells: Ba/F3 cells, retroviral pBabe-Puro vector

[5] = target: T5, EGFR G719A/R776C (Homo sapiens, UniProt P00533, G719A/R776C)
T5 construct: expressed in transfected cells; host or cells: Ba/F3
Experimental: (§3) Data represent the ratio of the IC50 value for a given TKI for cells with a PACC EGFR mutation to the IC50 value for cells with wildtype EGFR.
as §1
(§4) After 48-72 hours of transduction, 2 μg/ml puromycin (Invitrogen) was added to Ba/F3 cell lines in complete RPMI. To select for EGFR positive cell lines, cells were stained with PE-EGFR (Biolegend) and sorted by FACS. After sorting, EGFR positive cells were maintained in RPMI containing 10% FBS, 1% penicillin/streptomycin, and 1 ng/ml EGF to support cell viability. Drug screening was performed as previously described^41,42. Shortly, cells were plated in 384-well plates (Greiner Bio-One) at 2000-3000 cells per well in technical triplicate. Seven different concentrations of TKIs or DMSO vehicle were added to reach a final volume of 40 μL per well. After 72 hours, 11 μL of Cell Titer Glo (Promega) was added to each well. Plates were incubated for a minimum of 10 minutes, and bioluminescence was determined using a FLUOstar OPTIMA plate reader (BMG LABTECH). Raw bioluminescence values were normalized to DMSO control treated cells, and values were plotted in GraphPad Prism. […] Drug screens were performed in technical triplicate on each plate and either duplicate or triplicate biological replicates.

[6] = target: T6, EGFR Ex19del L718V (Homo sapiens, UniProt P00533, DEL746-750/L718V)
T6 construct: expressed in transfected cells; host or cells: Ba/F3

[7] = target: T7, EGFR L858R (Homo sapiens, UniProt P00533, L858R); conditions: Classical-Like, 72 hours
T7 construct: expressed in transfected cells; host or cells: Ba/F3 cells, retroviral pBabe-Puro vector

[8] = target: T8, EGFR L858R/T790M/C797S (Homo sapiens, UniProt P00533, C797S/L858R/T790M); conditions: T790M-like-3R, 72 hours
T8 construct: expressed in transfected cells; host or cells: Ba/F3

[9] = target: T9, EGFR Ex19del T854I (Homo sapiens, UniProt P00533, DEL746-750/T854I)
T9 construct: expressed in transfected cells; host or cells: Ba/F3 (retroviral transduction, pBabe-Puro based vectors)

[10] = target: T10, EGFR Ex19del T790M (Homo sapiens, UniProt P00533, DEL746-750/T790M); conditions: T790M-like-3S, 72 hours
T10 construct: expressed in transfected cells; host or cells: Ba/F3

[11] = target: T11, EGFR L858R/V834L (Homo sapiens, UniProt P00533, L858R/V834L); conditions: Classical-Like, 72 hours
T11 construct: expressed in transfected cells; host or cells: Ba/F3 cells, retroviral pBabe-Puro vector

[12] = target: T12, EGFR T725M (Homo sapiens, UniProt P00533, T725M); conditions: Classical-Like, 72 hours
T12 construct: expressed in transfected cells; host or cells: Ba/F3 cells, retroviral pBabe-Puro vector (vector made by GeneScript from EGFR WT)
Experimental: Data represent the ratio of the IC50 value for a given TKI for cells with a classical-like EGFR mutation to the IC50 value for cells with wildtype EGFR.
as §1
After 48-72 hours of transduction, 2 μg/ml puromycin (Invitrogen) was added to Ba/F3 cell lines in complete RPMI. To select for EGFR positive cell lines, cells were stained with PE-EGFR (Biolegend) and sorted by FACS. After sorting, EGFR positive cells were maintained in RPMI containing 10% FBS, 1% penicillin/streptomycin, and 1 ng/ml EGF to support cell viability. […] Shortly, cells were plated in 384-well plates (Greiner Bio-One) at 2000-3000 cells per well in technical triplicate. Seven different concentrations of TKIs or DMSO vehicle were added to reach a final volume of 40 μL per well. After 72 hours, 11 μL of Cell Titer Glo (Promega) was added to each well. Plates were incubated for a minimum of 10 minutes, and bioluminescence was determined using a FLUOstar OPTIMA plate reader (BMG LABTECH). Raw bioluminescence values were normalized to DMSO control treated cells, and values were plotted in GraphPad Prism. […] Drug screens were performed in technical triplicate on each plate and either duplicate or triplicate biological replicates.

[13] = target: T13, EGFR Ex19del (Homo sapiens, UniProt P00533, DEL746-750); conditions: Classical-Like, 72 hours
T13 construct: expressed in transfected cells; host or cells: Ba/F3 cells, retroviral pBabe-Puro vector

[14] = target: T14, EGFR Ex19del/L792H (Homo sapiens, UniProt P00533, DEL746-750/L792H)
T14 construct: expressed in transfected cells; host or cells: Ba/F3

[15] = target: T15, EGFR E709A (Homo sapiens, UniProt P00533, E709A)
T15 construct: expressed in transfected cells; host or cells: Ba/F3

[16] = target: T16, EGFR L858R/L792H (Homo sapiens, UniProt P00533, L792H/L858R)
T16 construct: expressed in transfected cells; host or cells: Ba/F3

[17] = target: T17, EGFR Ex19del/T790M/L792H (Homo sapiens, UniProt P00533, DEL746-750/L792H/T790M); conditions: T790M-like-3R, 72 hours
T17 construct: expressed in transfected cells; host or cells: Ba/F3

[18] = target: T18, EGFR E709K (Homo sapiens, UniProt P00533, E709K)
T18 construct: expressed in transfected cells; host or cells: Ba/F3

[19] = target: T19, EGFR H773insNPH (Homo sapiens, UniProt P00533, INS773NPH); conditions: Ex20, 72 hours
T19 construct: expressed in transfected cells; host or cells: Ba/F3 cells, retroviral pBabe-Puro vector

[20] = target: T20, EGFR Ex19del G724S (Homo sapiens, UniProt P00533, DEL746-750/G724S)
T20 construct: expressed in transfected cells; host or cells: Ba/F3

[21] = target: T21, EGFR S768I V774M (Homo sapiens, UniProt P00533, S768I/V774M)
T21 construct: host or cells: Ba/F3
Experimental: as §3, §1, §4

[22] = target: T22, EGFR S784F (Homo sapiens, UniProt P00533, S784F); conditions: Classical-Like, 72 hours
T22 construct: expressed in transfected cells; host or cells: Ba/F3 cells, retroviral pBabe-Puro vector (vector made by GeneScript from EGFR WT)

[23] = target: T23, EGFR K757R (Homo sapiens, UniProt P00533, K757R)
T23 construct: expressed in transfected cells; host or cells: Ba/F3
Experimental: as §3, §1, §2

[24] = target: T24, EGFR L858R/C797S (Homo sapiens, UniProt P00533, C797S/L858R)
T24 construct: expressed in transfected cells; host or cells: Ba/F3

[25] = target: T25, EGFR S768I/V769L (Homo sapiens, UniProt P00533, S768I/V769L)
T25 construct: host or cells: Ba/F3

[26] = target: T26, EGFR L858R/L718V (Homo sapiens, UniProt P00533, L718V/L858R)
T26 construct: host or cells: Ba/F3

CNC(=O)CN1CCC(Oc2cc3c(Nc4cccc(Cl)c4F)ncnc3cc2OC)CC1 [Sapatinib]
ratio of IC50 for cells with mutant EGFR to IC50 for cells with wildtype EGFR (Mut/WT) ([1]; PACC, V774M, Ba/F3, 72 hours): 0.05575
ratio of IC50 for cells with mutant EGFR to IC50 for cells with wildtype EGFR (Mut/WT) [2]: 2.666
ratio of IC50 for cells with mutant EGFR to IC50 for cells with wildtype EGFR (Mut/WT) [3]: 54.78
ratio of IC50 for cells with mutant EGFR to IC50 for cells with wildtype EGFR (Mut/WT) [4]: 0.001814
ratio of IC50 for cells with mutant EGFR to IC50 for cells with wildtype EGFR (Mut/WT) ([5]; PACC, G719A/R776C, Ba/F3, 72 hours): 0.0489
ratio of IC50 for cells with mutant EGFR to IC50 for cells with wildtype EGFR (Mut/WT) ([6]; PACC, Ex19del L718V, Ba/F3, 72 hours): 0.08016
ratio of IC50 for cells with mutant EGFR to IC50 for cells with wildtype EGFR (Mut/WT) [7]: 0.0006817
ratio of IC50 for cells with mutant EGFR to IC50 for cells with wildtype EGFR (Mut/WT) [8]: 66.82
ratio of IC50 for cells with mutant EGFR to IC50 for cells with wildtype EGFR (Mut/WT) ([9]; PACC, Ex19del T854I, Ba/F3, 72 hours): 0.2548
ratio of IC50 for cells with mutant EGFR to IC50 for cells with wildtype EGFR (Mut/WT) [10]: 10.73
ratio of IC50 for cells with mutant EGFR to IC50 for cells with wildtype EGFR (Mut/WT) [11]: 0.001889
ratio of IC50 for cells with mutant EGFR to IC50 for cells with wildtype EGFR (Mut/WT) [12]: 0.00667
ratio of IC50 for cells with mutant EGFR to IC50 for cells with wildtype EGFR (Mut/WT) [13]: 0.0005535
ratio of IC50 for cells with mutant EGFR to IC50 for cells with wildtype EGFR (Mut/WT) ([14]; PACC, Ex19del/L792H, Ba/F3, 72 hours): 53.47
ratio of IC50 for cells with mutant EGFR to IC50 for cells with wildtype EGFR (Mut/WT) ([15]; PACC, E709A, Ba/F3, 72 hours): 0.3243
ratio of IC50 for cells with mutant EGFR to IC50 for cells with wildtype EGFR (Mut/WT) ([16]; PACC, L858R/L792H, Ba/F3, 72 hours): 0.01237
ratio of IC50 for cells with mutant EGFR to IC50 for cells with wildtype EGFR (Mut/WT) [17]: 451.7
ratio of IC50 for cells with mutant EGFR to IC50 for cells with wildtype EGFR (Mut/WT) ([18]; PACC, E709K, Ba/F3, 72 hours): 0.1216
ratio of IC50 for cells with mutant EGFR to IC50 for cells with wildtype EGFR (Mut/WT) [19]: 1.265
ratio of IC50 for cells with mutant EGFR to IC50 for cells with wildtype EGFR (Mut/WT) ([20]; PACC, Ex19del G724S, Ba/F3, 72 hours): 27.39
ratio of IC50 for cells with mutant EGFR to IC50 for cells with wildtype EGFR (Mut/WT) ([21]; PACC, S768I V774M, Ba/F3, 72 hours): 0.2648
ratio of IC50 for cells with mutant EGFR to IC50 for cells with wildtype EGFR (Mut/WT) [22]: 0.08508
ratio of IC50 for cells with mutant EGFR to IC50 for cells with wildtype EGFR (Mut/WT) ([23]; PACC, K757R, Ba/F3, 72 hours): 0.3144
ratio of IC50 for cells with mutant EGFR to IC50 for cells with wildtype EGFR (Mut/WT) ([24]; PACC, L858R/C797S, Ba/F3, 72 hours): 0.001101
ratio of IC50 for cells with mutant EGFR to IC50 for cells with wildtype EGFR (Mut/WT) ([25]; PACC, S768I/V769L, Ba/F3, 72 hours): 0.2596
ratio of IC50 for cells with mutant EGFR to IC50 for cells with wildtype EGFR (Mut/WT) ([26]; PACC, L858R/L718V, Ba/F3, 72 hours): 0.05575

C=CC(=O)Nc1cc(Nc2ncc(C(=O)OC(C)C)c(-c3cn(C)c4ccccc34)n2)c(OC)cc1N(C)CCN(C)C [TAK-788 (mobocertinib), mobocertinib]
ratio of the IC50 value for cells with a PACC EGFR mutation to the IC50 value for cells with wildtype EGFR ([1]; Ba/F3 cells, EGFR V774M (PACC), Mut/WT): 1.453
ratio of IC50 for cells with mutant EGFR to IC50 for cells with wildtype EGFR (Mut/WT) [2]: 0.2515
ratio of IC50 for cells with mutant EGFR to IC50 for cells with wildtype EGFR (Mut/WT) [3]: 43.09
ratio of IC50 for cells with mutant EGFR to IC50 for cells with wildtype EGFR (Mut/WT) [4]: 0.363
ratio of the IC50 value for cells with a PACC EGFR mutation to the IC50 value for cells with wildtype EGFR ([5]; Ba/F3 cells, EGFR G719A/R776C (PACC), Mut/WT): 0.8144
ratio of the IC50 value for cells with a PACC EGFR mutation to the IC50 value for cells with wildtype EGFR ([6]; Ba/F3 cells, EGFR Ex19del L718V (PACC), Mut/WT): 1.296
ratio of IC50 for cells with mutant EGFR to IC50 for cells with wildtype EGFR (Mut/WT) [7]: 0.0472
ratio of IC50 for cells with mutant EGFR to IC50 for cells with wildtype EGFR (Mut/WT) [8]: 134.7
ratio of the IC50 value for cells with a PACC EGFR mutation to the IC50 value for cells with wildtype EGFR ([9]; Ba/F3 cells, EGFR Ex19del T854I (PACC), Mut/WT): 4.794
ratio of IC50 for cells with mutant EGFR to IC50 for cells with wildtype EGFR (Mut/WT) [10]: 0.2391
ratio of IC50 for cells with mutant EGFR to IC50 for cells with wildtype EGFR (Mut/WT) [11]: 0.006056
ratio of IC50 for cells with mutant EGFR to IC50 for cells with wildtype EGFR (Mut/WT) [12]: 1.082
ratio of IC50 for cells with mutant EGFR to IC50 for cells with wildtype EGFR (Mut/WT) [13]: 0.02859
ratio of the IC50 value for cells with a PACC EGFR mutation to the IC50 value for cells with wildtype EGFR ([14]; Ba/F3 cells, EGFR Ex19del/L792H (PACC), Mut/WT): 6.547
ratio of the IC50 value for cells with a PACC EGFR mutation to the IC50 value for cells with wildtype EGFR ([15]; Ba/F3 cells, EGFR E709A (PACC), Mut/WT): 1.583
ratio of the IC50 value for cells with a PACC EGFR mutation to the IC50 value for cells with wildtype EGFR ([16]; Ba/F3 cells, EGFR L858R/L792H (PACC), Mut/WT): 0.0457
ratio of IC50 for cells with mutant EGFR to IC50 for cells with wildtype EGFR (Mut/WT) [17]: 0.885
ratio of the IC50 value for cells with a PACC EGFR mutation to the IC50 value for cells with wildtype EGFR ([18]; Ba/F3 cells, EGFR E709K (PACC), Mut/WT): 10.68
ratio of IC50 for cells with mutant EGFR to IC50 for cells with wildtype EGFR (Mut/WT) [19]: 0.2952
ratio of the IC50 value for cells with a PACC EGFR mutation to the IC50 value for cells with wildtype EGFR ([20]; Ba/F3 cells, EGFR Ex19del G724S (PACC), Mut/WT): 3.682
ratio of the IC50 value for cells with a PACC EGFR mutation to the IC50 value for cells with wildtype EGFR ([21]; Ba/F3 cells, EGFR S768I V774M (PACC), Mut/WT): 1.227
ratio of IC50 for cells with mutant EGFR to IC50 for cells with wildtype EGFR (Mut/WT) [22]: 0.01487
ratio of the IC50 value for cells with a PACC EGFR mutation to the IC50 value for cells with wildtype EGFR ([23]; Ba/F3 cells, EGFR K757R (PACC), Mut/WT): 1.563
ratio of the IC50 value for cells with a PACC EGFR mutation to the IC50 value for cells with wildtype EGFR ([24]; Ba/F3 cells, EGFR L858R/C797S (PACC), Mut/WT): 57.42
ratio of the IC50 value for cells with a PACC EGFR mutation to the IC50 value for cells with wildtype EGFR ([25]; Ba/F3 cells, EGFR S768I/V769L (PACC), Mut/WT): 0.04994
ratio of the IC50 value for cells with a PACC EGFR mutation to the IC50 value for cells with wildtype EGFR ([26]; Ba/F3 cells, EGFR L858R/L718V (PACC), Mut/WT): 3.491
